According to ChEMBL document CHEMBL4334508, “Oleanolic Acid Derivatives as Potential Inhibitors of HIV-1 Protease” (J Nat Prod, 2019):
pIC50: −log10 of the molar value.

Molecular target: Protease (Human immunodeficiency virus 1, UniProt Q9YQ12)
Experiment: Inhibition of HIV1 protease expressed in Escherichia coli using Abz-Ala-Arg-Val-Nle-Tyr(NO2)-Glu-Ala-Nle-NH2 peptide as substrate by FRET assay

Sequence of Protease (Q9YQ12 whole entry): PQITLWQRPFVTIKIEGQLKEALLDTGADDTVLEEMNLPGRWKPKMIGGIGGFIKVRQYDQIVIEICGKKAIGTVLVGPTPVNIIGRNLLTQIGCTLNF

Compound | pIC50
CC(=O)O[C@H]1CC[C@]2(C)[C@H]3CC=C4[C@@H]5CC(C)(C)CC[C@]5(C(=O)NCCCCCCCCCCC(=O)N[C@@H](C)C(=O)O)CC[C@@]4(C)[C@]3(C)CC[C@H]2C1(C)C | < 4.30
CCCCCC(=O)O[C@H]1CC[C@]2(C)[C@H]3CC=C4[C@@H]5CC(C)(C)CC[C@]5(C(=O)NCCCCCCCCCCC(=O)N[C@@H](C)C(=O)O)CC[C@@]4(C)[C@]3(C)CC[C@H]2C1(C)C | < 4.30
CCC(=O)O[C@H]1CC[C@]2(C)[C@H]3CC=C4[C@@H]5CC(C)(C)CC[C@]5(C(=O)NCCCCCCCCCCC(=O)N[C@@H](C)C(=O)O)CC[C@@]4(C)[C@]3(C)CC[C@H]2C1(C)C | < 4.30
CC1(C)CC[C@]2(C(=O)NCCCCCC(=O)NCC(=O)O)CC[C@]3(C)C(=CC[C@@H]4[C@@]5(C)CC[C@H](OC(=O)c6ccccc6)C(C)(C)[C@@H]5CC[C@]43C)[C@@H]2C1 | < 4.30
CC1(C)CC[C@]2(C(=O)NCCCCCCCCCCC(=O)NCC(=O)O)CC[C@]3(C)C(=CC[C@@H]4[C@@]5(C)CC[C@H](OC(=O)CCC(=O)O)C(C)(C)[C@@H]5CC[C@]43C)[C@@H]2C1 | < 4.30
CC1(C)CC[C@]2(C(=O)NCCCCCCCCCCC(=O)NCC(=O)O)CC[C@]3(C)C(=CC[C@@H]4[C@@]5(C)CC[C@H](OC(=O)c6ccccc6)C(C)(C)[C@@H]5CC[C@]43C)[C@@H]2C1 | < 4.30
CC(=O)O[C@H]1CC[C@]2(C)[C@H]3CC=C4[C@@H]5CC(C)(C)CC[C@]5(C(=O)NCCCC(=O)N[C@H](C(=O)O)C(C)C)CC[C@@]4(C)[C@]3(C)CC[C@H]2C1(C)C | < 4.30
CC(C)[C@H](NC(=O)CCCNC(=O)[C@]12CCC(C)(C)C[C@H]1C1=CC[C@@H]3[C@@]4(C)CC[C@H](OC(=O)CC(C)(C)CC(=O)O)C(C)(C)[C@@H]4CC[C@@]3(C)[C@]1(C)CC2)C(=O)O | 4.33
CC(=O)O[C@H]1CC[C@]2(C)[C@H]3CC=C4[C@@H]5CC(C)(C)CC[C@]5(C(=O)NCCCCCC(=O)N[C@@H](C)C(=O)O)CC[C@@]4(C)[C@]3(C)CC[C@H]2C1(C)C | 4.33
CC(C)[C@H](NC(=O)CCCCCCCCCCNC(=O)[C@]12CCC(C)(C)C[C@H]1C1=CC[C@@H]3[C@@]4(C)CC[C@H](OC(=O)CCC(=O)O)C(C)(C)[C@@H]4CC[C@@]3(C)[C@]1(C)CC2)C(=O)O | < 4.30
C[C@H](NC(=O)CCCCCCCCCCNC(=O)[C@]12CCC(C)(C)C[C@H]1C1=CC[C@@H]3[C@@]4(C)CC[C@H](OC(=O)c5ccccc5)C(C)(C)[C@@H]4CC[C@@]3(C)[C@]1(C)CC2)C(=O)O | < 4.30
CC(C)[C@H](NC(=O)CCCCCCCCCCNC(=O)[C@]12CCC(C)(C)C[C@H]1C1=CC[C@@H]3[C@@]4(C)CC[C@H](OC(=O)CC(C)(C)CC(=O)O)C(C)(C)[C@@H]4CC[C@@]3(C)[C@]1(C)CC2)C(=O)O | < 4.30
C[C@H](NC(=O)CCCCCCCCCCNC(=O)[C@]12CCC(C)(C)C[C@H]1C1=CC[C@@H]3[C@@]4(C)CC[C@H](OC(=O)CCCC(=O)O)C(C)(C)[C@@H]4CC[C@@]3(C)[C@]1(C)CC2)C(=O)O | < 4.30
CCC(=O)O[C@H]1CC[C@]2(C)[C@H]3CC=C4[C@@H]5CC(C)(C)CC[C@]5(C(=O)NCCCC(=O)O)CC[C@@]4(C)[C@]3(C)CC[C@H]2C1(C)C | < 4.30
CC1(C)CC[C@]2(C(=O)NCCCCCCCCCCC(=O)O)CC[C@]3(C)C(=CC[C@@H]4[C@@]5(C)CC[C@H](OC(=O)CCC(=O)O)C(C)(C)[C@@H]5CC[C@]43C)[C@@H]2C1 | < 4.30
CCCCCC(=O)O[C@H]1CC[C@]2(C)[C@H]3CC=C4[C@@H]5CC(C)(C)CC[C@]5(C(=O)NCCCC(=O)N[C@H](C(=O)O)C(C)C)CC[C@@]4(C)[C@]3(C)CC[C@H]2C1(C)C | < 4.30
CC(C)[C@H](NC(=O)CCCCCCCCCCNC(=O)[C@]12CCC(C)(C)C[C@H]1C1=CC[C@@H]3[C@@]4(C)CC[C@H](OC(=O)c5ccccc5)C(C)(C)[C@@H]4CC[C@@]3(C)[C@]1(C)CC2)C(=O)O | < 4.30
CCCCCCCCCCCC(=O)O[C@H]1CC[C@]2(C)[C@H]3CC=C4[C@@H]5CC(C)(C)CC[C@]5(C(=O)NCCCCCC(=O)O)CC[C@@]4(C)[C@]3(C)CC[C@H]2C1(C)C | < 4.30
CC1(C)CC[C@]2(C(=O)NCCCC(=O)NCC(=O)O)CC[C@]3(C)C(=CC[C@@H]4[C@@]5(C)CC[C@H](OC(=O)CCC(=O)O)C(C)(C)[C@@H]5CC[C@]43C)[C@@H]2C1 | < 4.30
CCCCCCCCCCCC(=O)O[C@H]1CC[C@]2(C)[C@H]3CC=C4[C@@H]5CC(C)(C)CC[C@]5(C(=O)NCCCC(=O)N[C@H](C(=O)O)C(C)C)CC[C@@]4(C)[C@]3(C)CC[C@H]2C1(C)C | < 4.30
CC(=O)O[C@H]1CC[C@]2(C)[C@H]3CC=C4[C@@H]5CC(C)(C)CC[C@]5(C(=O)NCCCCCCCCCCC(=O)O)CC[C@@]4(C)[C@]3(C)CC[C@H]2C1(C)C | < 4.30
CCCC(=O)O[C@H]1CC[C@]2(C)[C@H]3CC=C4[C@@H]5CC(C)(C)CC[C@]5(C(=O)NCCCC(=O)N[C@@H](C)C(=O)O)CC[C@@]4(C)[C@]3(C)CC[C@H]2C1(C)C | < 4.30

The next compounds have a higher pIC50 than those just listed; values first:

pIC50 | Compound
6.00 | C[C@H](NC(=O)CCCCCCCCCCNC(=O)[C@]12CCC(C)(C)C[C@H]1C1=CC[C@@H]3[C@@]4(C)CC[C@H](OC(=O)c5ccccc5C(=O)O)C(C)(C)[C@@H]4CC[C@@]3(C)[C@]1(C)CC2)C(=O)O
4.49 | CC(=O)O[C@H]1CC[C@]2(C)[C@H]3CC=C4[C@@H]5CC(C)(C)CC[C@]5(C(=O)NCCCC(=O)O)CC[C@@]4(C)[C@]3(C)CC[C@H]2C1(C)C
4.62 | C[C@H](NC(=O)CCCCCNC(=O)[C@]12CCC(C)(C)C[C@H]1C1=CC[C@@H]3[C@@]4(C)CC[C@H](OC(=O)CC(C)(C)CC(=O)O)C(C)(C)[C@@H]4CC[C@@]3(C)[C@]1(C)CC2)C(=O)O
5.66 | CC1(C)CC[C@]2(C(=O)NCCCC(=O)NCC(=O)O)CC[C@]3(C)C(=CC[C@@H]4[C@@]5(C)CC[C@H](OC(=O)c6ccccc6C(=O)O)C(C)(C)[C@@H]5CC[C@]43C)[C@@H]2C1
4.41 | CC(C)(CC(=O)O)CC(=O)O[C@H]1CC[C@]2(C)[C@H]3CC=C4[C@@H]5CC(C)(C)CC[C@]5(C(=O)NCCCCCC(=O)NCC(=O)O)CC[C@@]4(C)[C@]3(C)CC[C@H]2C1(C)C
6.62 | CC(=O)N[C@H](C(=O)N[C@H](C(=O)N[C@@H](CC(C)C)[C@@H](O)CC(=O)N[C@@H](C)C(=O)N[C@@H](CC(C)C)[C@@H](O)CC(=O)O)C(C)C)C(C)C [ACETYLPEPSTATIN]
4.91 | CC(C)(CC(=O)O)CC(=O)O[C@H]1CC[C@]2(C)[C@H]3CC=C4[C@@H]5CC(C)(C)CC[C@]5(C(=O)NCCCCCC(=O)O)CC[C@@]4(C)[C@]3(C)CC[C@H]2C1(C)C
4.38 | CC(C)[C@H](NC(=O)CCCNC(=O)[C@]12CCC(C)(C)C[C@H]1C1=CC[C@@H]3[C@@]4(C)CC[C@H](OC(=O)CCC(=O)O)C(C)(C)[C@@H]4CC[C@@]3(C)[C@]1(C)CC2)C(=O)O
4.48 | CC(C)(CC(=O)O)CC(=O)O[C@H]1CC[C@]2(C)[C@H]3CC=C4[C@@H]5CC(C)(C)CC[C@]5(C(=O)NCCCC(=O)O)CC[C@@]4(C)[C@]3(C)CC[C@H]2C1(C)C
4.40 | CCCC(=O)O[C@H]1CC[C@]2(C)[C@H]3CC=C4[C@@H]5CC(C)(C)CC[C@]5(C(=O)NCCCCCC(=O)N[C@@H](C)C(=O)O)CC[C@@]4(C)[C@]3(C)CC[C@H]2C1(C)C
